Laboratory results published in article PMC11040352, “CD38‐Specific Gallium‐68 Labeled Peptide Radiotracer Enables Pharmacodynamic Monitoring in Multiple Myeloma with PET” (Advanced Science, 2024).
Read-outs that look alike come from different tables or passages of the source.

Assay: Ex vivo biodistribution in mice with MM1S tumor xenografts
Conditions: NSG, mouse; for tissue uptake at 5 min: 5 min p.i.; for tissue uptake at 0.5 h: 30 min p.i.; for tissue uptake at 1 h / tissue to tissue ratio at 1 h: 60 min p.i.; for tissue uptake at 1.5 h: 90 min p.i.; for tissue uptake at 2 h: 120 min p.i.
Method: Animal studies were performed under Johns Hopkins University Animal Care and Use Committee (ACUC‐approved protocol (Principal investigator: Sridhar Nimmagadda, Ph.D. and Protocol number M021M175). Male and female NSG mice (5‐6 weeks old) were used to establish xenografts by administering 3 million cells (50% Corning Matrigel) subcutaneously to form various tumor models within 3–4 weeks. Imaging or biodistribution studies (n = 3–5) were conducted on mice with tumor volumes of 100–200 mm^3. Disseminated tumor models were developed by injecting 4–5 million cells in saline intravenously for MOLP8 and MM1S‐Luc models (n = 4–5). Luciferase expressing MM1S cell line (MM1S‐Luc) was used to monitor cancer cell dissemination in the body. Tumor establishment was confirmed by injecting D‐Luciferin intraperitoneally (150 mg kg^−1) and imaged mice after 10 min in IVIS bioluminescence imaging system. Bone marrow tumors were ready for imaging after 25–30 d of implantation.
Mice with 100–200 mm^3 tumor volume were used for ex vivo biodistribution studies. For radiotracer pharmacokinetics studies, mice with MOLP8 tumor xenografts received ≈80 µCi (2.96 MBq) [^68Ga]Ga‐AJ206 and were sacrificed at pre‐determined time points (5, 30, 60 and 120 min). Similarly, for dosimetry study, mice with MM1S tumor xenografts received ≈80 µCi (2.96 MBq) of [^68Ga]Ga‐AJ206 and were sacrificed at pre‐determined time points (5, 30, 60, 90 and 120 min). All other mice were injected with ≈50µCi (1.85 MBq) [^68Ga]Ga‐AJ206 and were sacrificed at 60 min. The selected tissues were collected, weighed, counted, and their %ID g^−1 values calculated for biodistribution analysis. The tissues included blood, muscle, tumor, thymus, heart, lung, liver, pancreas, stomach, small intestine, large intestine, spleen, adrenals, kidney, bladder, femur, and brain.

[1] = both sexes, adrenals, 80 µCi, MM1S xenograft mice, read-out: uptake in adrenals
[2] = both sexes, bladder, 80 µCi, MM1S xenograft mice, read-out: uptake in bladder
[3] = both sexes, blood, 80 µCi, total radioactivity, MM1S xenograft mice, read-out: uptake in blood
[4] = both sexes, brain, 80 µCi, MM1S xenograft mice, read-out: uptake in brain
[5] = both sexes, femur, 80 µCi, MM1S xenograft mice, read-out: uptake in femur
[6] = both sexes, heart, 80 µCi, total radioactivity, MM1S xenograft mice, read-out: uptake in heart
[7] = both sexes, kidney, 80 µCi, MM1S xenograft mice, read-out: uptake in kidney
[8] = both sexes, large intestine (with contents), 80 µCi, MM1S xenograft mice, read-out: uptake in large intestine (with contents)
[9] = both sexes, liver, 80 µCi, total radioactivity, MM1S xenograft mice, read-out: uptake in liver
[10] = both sexes, lung, 80 µCi, total radioactivity, MM1S xenograft mice, read-out: uptake in lung
[11] = both sexes, muscle, 80 µCi, MM1S xenograft mice, read-out: uptake in muscle
[12] = both sexes, pancreas, 80 µCi, total radioactivity, MM1S xenograft mice, read-out: uptake in pancreas
[13] = both sexes, small intestine (with contents), 80 µCi, MM1S xenograft mice, read-out: uptake in small intestine (with contents)
[14] = both sexes, spleen, 80 µCi, total radioactivity, MM1S xenograft mice, read-out: uptake in spleen
[15] = both sexes, stomach (with contents), 80 µCi, MM1S xenograft mice, read-out: uptake in stomach (with contents)
[16] = both sexes, thymus, 80 µCi, total radioactivity, MM1S xenograft mice, read-out: uptake in thymus
[17] = both sexes, tumor, 80 µCi, total radioactivity, MM1S xenograft mice, read-out: uptake in tumor
[18] = female, ovary, 80 µCi, MM1S xenograft mice, read-out: uptake in ovary

SMILES: CC[C@H](C)[C@@H]1NC(=O)[C@@H]2CCCN2C(=O)[C@H](Cc2ccccc2)NC(=O)[C@H](CC(=O)O)NC(=O)[C@H](C)NC(=O)[C@@H]2CSCc3cc(cc(c3)CSC[C@H](NC(=O)[C@H](C)NC(=O)CCOCCOCCOCCNC(=O)CN3CCN(CC(=O)O)CCN(CC(=O)O)CC3)C(=O)N[C@@H](C(C)C)C(=O)N3CCC[C@H]3C(=O)N2)CSC[C@@H](C(N)=O)NC(=O)[C@H](Cc2ccc(O)cc2)NC(=O)[C@H](Cc2c[nH]c3ccccc23)NC1=O [[^68Ga]Ga‐AJ206, metal not drawn]
- tissue uptake at 5 min [1]: 5.07 ± 0.11 %ID/g
- tissue uptake at 0.5 h [1]: 2.08 ± 0.38 %ID/g
- tissue uptake at 1 h [1]: 0.59 ± 0.06 %ID/g
- tissue uptake at 1.5 h [1]: 0.44 ± 0.1 %ID/g
- tissue uptake at 2 h [1]: 0.57 ± 0.14 %ID/g
- tissue uptake at 5 min [2]: 9.35 ± 1.87 %ID/g
- tissue uptake at 0.5 h [2]: 4.51 ± 0.93 %ID/g
- tissue uptake at 1 h [2]: 0.75 ± 0.08 %ID/g
- tissue uptake at 1.5 h [2]: 1.23 ± 0.1 %ID/g
- tissue uptake at 2 h [2]: 0.9 ± 0.37 %ID/g
- tissue uptake at 1 h (both sexes, blood, 2 mg/kg, MM1S xenograft mice with blocking dose (2 mg kg^−1 AJ206), read-out: uptake in blood): 2.17 ± 1.17 %ID/g
- tissue uptake at 2 h (both sexes, blood, 80 µCi, MM1S xenograft mice, read-out: uptake in blood): 0.33 ± 0.07 %ID/g
- tissue uptake at 5 min [3]: 20.7 ± 1.68 %ID/g
- tissue uptake at 0.5 h [3]: 2.95 ± 0.37 %ID/g
- tissue uptake at 1 h [3]: 0.75 ± 0.29 %ID/g
- tissue uptake at 1.5 h [3]: 0.75 ± 0.24 %ID/g
- tissue uptake at 5 min [4]: 0.44 ± 0.07 %ID/g
- tissue uptake at 0.5 h [4]: 0.21 ± 0.12 %ID/g
- tissue uptake at 1 h [4]: 0.06 ± 0.03 %ID/g
- tissue uptake at 1.5 h [4]: 0.03 ± 0.01 %ID/g
- tissue uptake at 2 h [4]: 0.02 ± 0.01 %ID/g
- tissue uptake at 1 h (both sexes, femur, 2 mg/kg, MM1S xenograft mice with blocking dose (2 mg kg^−1 AJ206), read-out: uptake in femur): 0.25 ± 0.09 %ID/g
- tissue uptake at 5 min [5]: 3.37 ± 0.31 %ID/g
- tissue uptake at 0.5 h [5]: 0.86 ± 0.06 %ID/g
- tissue uptake at 1 h [5]: 0.33 ± 0.12 %ID/g
- tissue uptake at 1.5 h [5]: 0.28 ± 0.05 %ID/g
- tissue uptake at 2 h [5]: 0.09 ± 0.02 %ID/g
- tissue uptake at 1 h (both sexes, heart, 2 mg/kg, MM1S xenograft mice with blocking dose (2 mg kg^−1 AJ206), read-out: uptake in heart): 0.33 ± 0.03 %ID/g
- tissue uptake at 5 min [6]: 6.38 ± 0.42 %ID/g
- tissue uptake at 0.5 h [6]: 1 ± 0.15 %ID/g
- tissue uptake at 1 h [6]: 0.29 ± 0.03 %ID/g
- tissue uptake at 1.5 h [6]: 0.35 ± 0.08 %ID/g
- tissue uptake at 2 h [6]: 0.16 ± 0.01 %ID/g
- tissue uptake at 1 h (both sexes, kidney, 2 mg/kg, MM1S xenograft mice with blocking dose (2 mg kg^−1 AJ206), read-out: uptake in kidney): 15.9 ± 1.12 %ID/g
- tissue uptake at 5 min [7]: 31.5 ± 4.15 %ID/g
- tissue uptake at 0.5 h [7]: 21.6 ± 2.02 %ID/g
- tissue uptake at 1 h [7]: 14.1 ± 0.57 %ID/g
- tissue uptake at 1.5 h [7]: 13.2 ± 1.59 %ID/g
- tissue uptake at 2 h [7]: 9.39 ± 1.5 %ID/g
- tissue uptake at 5 min [8]: 3.11 ± 0.38 %ID/g
- tissue uptake at 0.5 h [8]: 0.75 ± 0.04 %ID/g
- tissue uptake at 1 h [8]: 0.29 ± 0.03 %ID/g
- tissue uptake at 1.5 h [8]: 0.27 ± 0.05 %ID/g
- tissue uptake at 2 h [8]: 0.27 ± 0.19 %ID/g
- tissue uptake at 1 h (both sexes, liver, 2 mg/kg, MM1S xenograft mice with blocking dose (2 mg kg^−1 AJ206), read-out: uptake in liver): 1.45 ± 0.26 %ID/g
- tissue uptake at 5 min [9]: 30.3 ± 3.51 %ID/g
- tissue uptake at 0.5 h [9]: 3.64 ± 0.31 %ID/g
- tissue uptake at 1 h [9]: 1.38 ± 0.04 %ID/g
- tissue uptake at 1.5 h [9]: 1.16 ± 0.08 %ID/g
- tissue uptake at 2 h [9]: 0.73 ± 0.1 %ID/g
- tissue uptake at 1 h (both sexes, lung, 2 mg/kg, MM1S xenograft mice with blocking dose (2 mg kg^−1 AJ206), read-out: uptake in lung): 0.94 ± 0.09 %ID/g
- tissue uptake at 5 min [10]: 10.2 ± 4.52 %ID/g
- tissue uptake at 0.5 h [10]: 3.43 ± 0.5 %ID/g
- tissue uptake at 1 h [10]: 0.67 ± 0.07 %ID/g
- tissue uptake at 1.5 h [10]: 0.95 ± 0.18 %ID/g
- tissue uptake at 2 h [10]: 0.4 ± 0.04 %ID/g
- tissue uptake at 1 h (both sexes, muscle, 2 mg/kg, MM1S xenograft mice with blocking dose (2 mg kg^−1 AJ206), read-out: uptake in muscle): 0.21 ± 0.07 %ID/g
- tissue uptake at 5 min [11]: 1.96 ± 0.28 %ID/g
- tissue uptake at 0.5 h [11]: 0.55 ± 0.09 %ID/g
- tissue uptake at 1 h [11]: 0.13 ± 0.02 %ID/g
- tissue uptake at 1.5 h [11]: 0.18 ± 0.04 %ID/g
- tissue uptake at 2 h (both sexes, muscle, 80 µCi, total radioactivity, MM1S xenograft mice, read-out: uptake in muscle): 0.09 ± 0.02 %ID/g
- tissue uptake at 1 h (both sexes, pancreas, 2 mg/kg, MM1S xenograft mice with blocking dose (2 mg kg^−1 AJ206), read-out: uptake in pancreas): 0.64 ± 0.39 %ID/g
- tissue uptake at 5 min [12]: 3.55 ± 0.34 %ID/g
- tissue uptake at 0.5 h [12]: 0.79 ± 0.14 %ID/g
- tissue uptake at 1 h [12]: 0.19 ± 0.03 %ID/g
- tissue uptake at 1.5 h [12]: 0.26 ± 0.06 %ID/g
- tissue uptake at 2 h [12]: 0.17 ± 0.05 %ID/g
- tissue uptake at 5 min [13]: 5 ± 0.7 %ID/g
- tissue uptake at 0.5 h [13]: 0.95 ± 0.1 %ID/g
- tissue uptake at 1 h [13]: 0.2 ± 0.1 %ID/g
- tissue uptake at 1.5 h [13]: 0.41 ± 0.08 %ID/g
- tissue uptake at 2 h [13]: 0.52 ± 0.21 %ID/g
- tissue uptake at 1 h (both sexes, small intestine, 2 mg/kg, MM1S xenograft mice with blocking dose (2 mg kg^−1 AJ206), read-out: uptake in small intestine): 0.87 ± 0.5 %ID/g
- tissue uptake at 1 h (both sexes, spleen, 2 mg/kg, MM1S xenograft mice with blocking dose (2 mg kg^−1 AJ206), read-out: uptake in spleen): 0.9 ± 0.45 %ID/g
- tissue uptake at 5 min [14]: 6.41 ± 1.3 %ID/g
- tissue uptake at 0.5 h [14]: 1.21 ± 0.15 %ID/g
- tissue uptake at 1 h [14]: 0.41 ± 0.05 %ID/g
- tissue uptake at 1.5 h [14]: 0.43 ± 0.07 %ID/g
- tissue uptake at 2 h [14]: 0.28 ± 0.05 %ID/g
- tissue uptake at 5 min [15]: 1.65 ± 0.19 %ID/g
- tissue uptake at 0.5 h [15]: 0.54 ± 0.19 %ID/g
- tissue uptake at 1 h [15]: 0.32 ± 0.21 %ID/g
- tissue uptake at 1.5 h [15]: 0.82 ± 0.36 %ID/g
- tissue uptake at 2 h [15]: 0.47 ± 0.3 %ID/g
- tissue uptake at 1 h (both sexes, stomach, 2 mg/kg, MM1S xenograft mice with blocking dose (2 mg kg^−1 AJ206), read-out: uptake in stomach): 1.01 ± 0.56 %ID/g
- tissue uptake at 5 min [16]: 16.5 ± 5.34 %ID/g
- tissue uptake at 0.5 h [16]: 2.67 ± 0.83 %ID/g
- tissue uptake at 1 h [16]: 0.69 ± 0.19 %ID/g
- tissue uptake at 1.5 h [16]: 0.84 ± 0.18 %ID/g
- tissue uptake at 2 h [16]: 0.33 ± 0.1 %ID/g
- tissue uptake at 1 h (both sexes, tumor, 2 mg/kg, MM1S xenograft mice with blocking dose (2 mg kg^−1 AJ206), read-out: uptake in tumor): 1.37 ± 0.22 %ID/g
- tissue uptake at 5 min [17]: 3.09 ± 0.16 %ID/g
- tissue uptake at 0.5 h [17]: 4.15 ± 0.53 %ID/g
- tissue uptake at 1.5 h [17]: 1.6 ± 0.46 %ID/g
- tissue uptake at 2 h [17]: 1.3 ± 0.4 %ID/g
- tissue uptake at 1 h (both sexes, tumor, MM1S xenograft mice, read-out: uptake in tumor): 2.48 ± 0.17 %ID/g
- tissue to tissue ratio at 1 h (both sexes, tumor/blood, total radioactivity, MM1S xenograft mice with blocking dose (2 mg kg^−1 AJ206), read-out: Tumor/Blood ratio): 1.08 ± 0.4
- tissue to tissue ratio at 1 h (both sexes, tumor/blood, total radioactivity, MM1S xenograft mice, read-out: Tumor/Blood ratio): 2.9 ± 0.65
- tissue to tissue ratio at 1 h (both sexes, tumor/muscle, total radioactivity, MM1S xenograft mice with blocking dose (2 mg kg^−1 AJ206), read-out: Tumor/Muscle ratio): 8.31 ± 2.41
- tissue to tissue ratio at 1 h (both sexes, tumor/muscle, total radioactivity, MM1S xenograft mice, read-out: Tumor/Muscle ratio): 21.2 ± 3.4
- tissue uptake at 5 min [18]: 4.11 ± 1.4 %ID/g
- tissue uptake at 0.5 h [18]: 1.48 ± 0.32 %ID/g
- tissue uptake at 1 h [18]: 0.2 ± 0.06 %ID/g
- tissue uptake at 1.5 h [18]: 0.32 ± 0.14 %ID/g
- tissue uptake at 2 h [18]: 0.45 ± 0.15 %ID/g
